Assay results published in patent publication US9738902B2, “Modified PYR/PYL receptors activated by ligands” (priority 2013, dated 2017).

Assays:
Type in all cases: cell-based
PYR1 K59R F159T = biological target: T1, PYR1 K59R F159T (Arabidopsis thaliana, UniProt O49686, F159T/K59R); assay: Y2H Pocket Library Screen (HAB1, X-gal)
T1 construct: expressed in transfected cells; host or cells: S. cerevisiae Y190
Method: (§1) The set of 475 mutant plasmids were individually transformed into the Y190 yeast two hybrid reporter strain co-transformed with pACT-HAB1, as previously described (Park et al., 2009). The yeast strains generated were arrayed into 96-well plates yielding what we refer to as the “pocket library”. The pocket library strains were spotted onto agar plates containing selective synthetic dextrose (minus Leu & Trp) medium that was supplemented with a single test compound at 100 μM. The pocket library strains were separately tested for responsiveness to the following compounds: dichlobenil, benzothiadiazole, mandipropamid, fludioxonil, and benoxacor. After incubating test plates at 30° C. for two days, colonies were chloroform lysed and stained to reveal β-galactosidase expression levels, using previously described methods (Park et al., 2009). Mutants displaying responsiveness to the test compound, if present, were identified by virtue of X-gal staining and then subjected to subsequent optimization efforts. Using this approach we identified mutations that conferred detectable sensitivity to the compounds tested (see entries labeled “Pocket Library Screens” in Table 1).

PYR1 K59R M158C = biological target: T2, PYR1 K59R M158C (Arabidopsis thaliana, UniProt O49686, K59R/M158C); assay: Y2H Pocket Library Screen (HAB1, X-gal)
T2 construct: expressed in transfected cells; host or cells: S. cerevisiae Y190 two-hybrid reporter strain
Method: as §1

PYR1 K59R Y120G = biological target: T3, PYR1 K59R Y120G (Arabidopsis thaliana, UniProt O49686, K59R/Y120G); assay: Y2H Pocket Library Screen (HAB1, X-gal)
T3 construct: expressed in transfected cells; host or cells: S. cerevisiae Y190 two-hybrid reporter strain
Method: as §1

PYR1 K59R N167H = biological target: T4, PYR1 K59R N167H (Arabidopsis thaliana, UniProt O49686, K59R/N167H); assay: Y2H Pocket Library Screen (HAB1, X-gal)
T4 construct: expressed in transfected cells; host or cells: S. cerevisiae Y190 two-hybrid reporter strain
Method: as §1

PYR1 K59R Y120F = biological target: T5, PYR1 K59R Y120F (Arabidopsis thaliana, UniProt O49686, K59R/Y120F); assay: Y2H Pocket Library Screen (HAB1, X-gal)
T5 construct: expressed in transfected cells; host or cells: S. cerevisiae Y190 two-hybrid reporter strain
T5 sequence (Q9CAJ0 23-511): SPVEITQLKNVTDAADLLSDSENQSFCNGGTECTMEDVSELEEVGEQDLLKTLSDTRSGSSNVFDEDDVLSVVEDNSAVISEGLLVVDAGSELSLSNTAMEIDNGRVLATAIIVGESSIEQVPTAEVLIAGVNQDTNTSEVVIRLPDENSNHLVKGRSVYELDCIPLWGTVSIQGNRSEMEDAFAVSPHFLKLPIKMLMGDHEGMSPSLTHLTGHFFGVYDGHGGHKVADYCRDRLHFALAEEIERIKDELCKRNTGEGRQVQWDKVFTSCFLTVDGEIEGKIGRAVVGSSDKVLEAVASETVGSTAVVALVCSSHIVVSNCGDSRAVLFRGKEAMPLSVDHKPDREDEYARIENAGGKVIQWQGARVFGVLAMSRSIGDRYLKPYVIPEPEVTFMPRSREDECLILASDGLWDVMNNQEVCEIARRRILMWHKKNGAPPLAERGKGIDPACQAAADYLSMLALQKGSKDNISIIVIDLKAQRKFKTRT
T5 sequence (O49686 whole entry K59R/Y120F): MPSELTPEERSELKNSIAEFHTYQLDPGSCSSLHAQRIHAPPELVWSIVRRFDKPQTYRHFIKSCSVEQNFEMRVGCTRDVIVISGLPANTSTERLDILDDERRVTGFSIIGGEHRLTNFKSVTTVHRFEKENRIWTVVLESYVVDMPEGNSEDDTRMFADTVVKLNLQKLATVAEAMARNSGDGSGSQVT
Method: as §1

PYR1 K59R F159V = biological target: T6, PYR1 K59R F159V (Arabidopsis thaliana, UniProt O49686, F159V/K59R); assay: Y2H Pocket Library Screen (HAB1, X-gal)
T6 construct: expressed in transfected cells; host or cells: S. cerevisiae Y190
Method: as §1

PYR1 K59R V81Y = biological target: T7, PYR1 K59R V81Y (Arabidopsis thaliana, UniProt O49686, K59R/V81Y); assay: Y2H Pocket Library Screen (HAB1, X-gal)
T7 construct: expressed in transfected cells; host or cells: S. cerevisiae Y190 yeast two-hybrid reporter strain
Method: as §1

PYR1 K59R N167V = biological target: T8, PYR1 K59R N167V (Arabidopsis thaliana, UniProt O49686, K59R/N167V); assay: Y2H Pocket Library Screen (HAB1, X-gal)
T8 construct: expressed in transfected cells; host or cells: S. cerevisiae Y190 two-hybrid reporter strain
Method: as §1

PYR1 K59R E141Y = biological target: T9, PYR1 K59R E141Y (Arabidopsis thaliana, UniProt O49686, E141Y/K59R); assay: Y2H Pocket Library Screen (HAB1, X-gal)
T9 construct: expressed in transfected cells; host or cells: S. cerevisiae Y190 two-hybrid reporter strain
Method: as §1

PYR1 K59R N167C = biological target: T10, PYR1 K59R N167C (Arabidopsis thaliana, UniProt O49686, K59R/N167C); assay: Y2H Pocket Library Screen (HAB1, X-gal)
T10 construct: expressed in transfected cells; host or cells: S. cerevisiae Y190 two-hybrid reporter strain
Method: as §1

PYR1 K59R L87F = biological target: T11, PYR1 K59R L87F (Arabidopsis thaliana, UniProt O49686, K59R/L87F); assay: Y2H Pocket Library Screen (HAB1, X-gal)
T11 construct: expressed in transfected cells; host or cells: S. cerevisiae Y190 yeast two-hybrid reporter strain
Method: as §1

PYR1 K59R E94D = biological target: T12, PYR1 K59R E94D (Arabidopsis thaliana, UniProt O49686, E94D/K59R); assay: Y2H Pocket Library Screen (HAB1, X-gal)
T12 construct: expressed in transfected cells; host or cells: S. cerevisiae Y190 yeast two-hybrid reporter strain
Method: as §1

PYR1 K59R Y120A = biological target: T13, PYR1 K59R Y120A (Arabidopsis thaliana, UniProt O49686, K59R/Y120A); assay: Y2H Pocket Library Screen (HAB1, X-gal)
T13 construct: expressed in transfected cells; host or cells: S. cerevisiae Y190 two-hybrid reporter strain
Method: as §1

PYR1 K59R F108L = biological target: T14, PYR1 K59R F108L (Arabidopsis thaliana, UniProt O49686, F108L/K59R); assay: Y2H Pocket Library Screen (HAB1, X-gal)
T14 construct: expressed in transfected cells; host or cells: S. cerevisiae Y190 yeast two-hybrid reporter strain
Method: as §1

PYR1 K59R V83L = biological target: T15, PYR1 K59R V83L (Arabidopsis thaliana, UniProt O49686, K59R/V83L); assay: Y2H Pocket Library Screen (HAB1, X-gal)
T15 construct: expressed in transfected cells; host or cells: S. cerevisiae Y190 yeast two-hybrid reporter strain
Method: as §1

PYR1 K59R V81I = biological target: T16, PYR1 K59R V81I (Arabidopsis thaliana, UniProt O49686, K59R/V81I); assay: Y2H Pocket Library Screen (HAB1, X-gal)
T16 construct: expressed in transfected cells; host or cells: S. cerevisiae Y190 yeast two-hybrid reporter strain
T16 sequence (O49686 whole entry K59R/V81I): as the sequence (O49686 whole entry K59R/Y120F) above, with V81I, F120Y counted along it
T16 sequence (Q9CAJ0 23-511, further chain): as the sequence (Q9CAJ0 23-511) above
Method: as §1

PYR1 K59R Y120M = biological target: T17, PYR1 K59R Y120M (Arabidopsis thaliana, UniProt O49686, K59R/Y120M); assay: Y2H Pocket Library Screen (HAB1, X-gal)
T17 construct: expressed in transfected cells; host or cells: S. cerevisiae Y190 two-hybrid reporter strain
Method: as §1

PYR1 K59R V164K = biological target: T18, PYR1 K59R V164K (Arabidopsis thaliana, UniProt O49686, K59R/V164K); assay: Y2H Pocket Library Screen (HAB1, X-gal)
T18 construct: expressed in transfected cells; host or cells: S. cerevisiae Y190
Method: as §1

PYR1 K59R F159A = biological target: T19, PYR1 K59R F159A (Arabidopsis thaliana, UniProt O49686, F159A/K59R); assay: Y2H Pocket Library Screen (HAB1, X-gal)
T19 construct: expressed in transfected cells; host or cells: S. cerevisiae Y190 two-hybrid reporter strain
T19 sequence (Q9CAJ0 23-511): as above
T19 sequence (O49686 whole entry K59R/F159A): as the sequence (O49686 whole entry K59R/Y120F) above, with F120Y, F159A counted along it
Method: as §1

PYR1 K59R M158T = biological target: T20, PYR1 K59R M158T (Arabidopsis thaliana, UniProt O49686, K59R/M158T); assay: Y2H Pocket Library Screen (HAB1, X-gal)
T20 construct: expressed in transfected cells; host or cells: S. cerevisiae Y190 two-hybrid reporter strain
T20 sequence (Q9CAJ0 23-511): as the sequence (Q9CAJ0 23-511) above
T20 sequence (O49686 whole entry K59R/M158T): as the sequence (O49686 whole entry K59R/Y120F) above, with F120Y, M158T counted along it
Method: as §1

PYR1 K59R A160C = biological target: T21, PYR1 K59R A160C (Arabidopsis thaliana, UniProt O49686, A160C/K59R); assay: Y2H Pocket Library Screen (HAB1, X-gal)
T21 construct: expressed in transfected cells; host or cells: S. cerevisiae Y190
Method: as §1

PYR1 K59R E94S = biological target: T22, PYR1 K59R E94S (Arabidopsis thaliana, UniProt O49686, E94S/K59R); assay: Y2H Pocket Library Screen (HAB1, X-gal)
T22 construct: expressed in transfected cells; host or cells: S. cerevisiae Y190 yeast two-hybrid reporter strain
Method: as §1

PYR1 K59R M158I = biological target: T23, PYR1 K59R M158I (Arabidopsis thaliana, UniProt O49686, K59R/M158I); assay: Y2H Pocket Library Screen (HAB1, X-gal)
T23 construct: expressed in transfected cells; host or cells: S. cerevisiae Y190 two-hybrid reporter strain
Method: as §1

PYR1 K59R L87P = biological target: T24, PYR1 K59R L87P (Arabidopsis thaliana, UniProt O49686, K59R/L87P); assay: Y2H Pocket Library Screen (HAB1, X-gal)
T24 construct: expressed in transfected cells; host or cells: S. cerevisiae Y190 yeast two-hybrid reporter strain
Method: as §1

PYR1 K59R M158V = biological target: T25, PYR1 K59R M158V (Arabidopsis thaliana, UniProt O49686, K59R/M158V); assay: Y2H Pocket Library Screen (HAB1, X-gal)
T25 construct: expressed in transfected cells; host or cells: S. cerevisiae Y190 two-hybrid reporter strain
Method: as §1

PYR1 K59R E94A = biological target: T26, PYR1 K59R E94A (Arabidopsis thaliana, UniProt O49686, E94A/K59R); assay: Y2H Pocket Library Screen (HAB1, X-gal)
T26 construct: expressed in transfected cells; host or cells: S. cerevisiae Y190 yeast two-hybrid reporter strain
T26 sequence (O49686 whole entry K59R/E94A): as the sequence (O49686 whole entry K59R/Y120F) above, with E94A, F120Y counted along it
T26 sequence (Q9CAJ0 23-511 partner): as the sequence (Q9CAJ0 23-511) above
Method: as §1

PYR1 K59R S92F = biological target: T27, PYR1 K59R S92F (Arabidopsis thaliana, UniProt O49686, K59R/S92F); assay: Y2H Pocket Library Screen (HAB1, X-gal)
T27 construct: expressed in transfected cells; host or cells: S. cerevisiae Y190 yeast two-hybrid reporter strain
Method: as §1

PYR1 K59R T162W = biological target: T28, PYR1 K59R T162W (Arabidopsis thaliana, UniProt O49686, K59R/T162W); assay: Y2H Pocket Library Screen (HAB1, X-gal)
T28 construct: expressed in transfected cells; host or cells: S. cerevisiae Y190
T28 sequence (O49686 whole entry K59R/T162W): as the sequence (O49686 whole entry K59R/Y120F) above, with F120Y, T162W counted along it
T28 sequence (Q9CAJ0 23-511, further chain): as the sequence (Q9CAJ0 23-511) above
Method: as §1

PYR1 K59R E94A Y120A = biological target: T29, PYR1 K59R E94A Y120A (Arabidopsis thaliana, UniProt O49686, E94A/K59R/Y120A); assay: Y2H Combinatorial Mutagenesis Screen I (HAB1, X-gal)
T29 construct: expressed in transfected cells; host or cells: S. cerevisiae Y190 two-hybrid reporter strain
Source text: (§2) This screening approach yielded mutants at ligand contacting residues that alter sensitivity to specific ligands. We reasoned that receptor sensitivity could be improved by systematically constructing combinations of the best mutant variants identified in the first round of screening. To test this, we constructed mutant combinations using the strongest mutations identified for mandipropamid, benzothiadiazole, benoxacor or fludioxonil sensitivity. The mutations selected for combinatorial mutagenesis are listed in bold type in Table 1; The mutant combinations were constructed using the QuickChange Lightning Multi Site-Directed PCR Mutagenesis kit (Agilent, USA) using pBD-PYR1^K59R template DNA and mutagenic primers, essentially as previously described (Mosquna et al., 2011). The mutant combinations were sequence validated, introduced into the pACT-HAB1 Y190 reporter strain and then tested for responsiveness to a range of compound concentrations (100, 50, 25, 10, 1, 0.2, 0.1 or 0 μM each test compound). These efforts yielded double mutant receptor variants with improved sensitivity for the 4 compound/receptor pairs examined (see entries labeled “Combinatorial Mutagenesis Screen I” in Table 1).

PYR1 K59R Y120A E141Y = biological target: T30, PYR1 K59R Y120A E141Y (Arabidopsis thaliana, UniProt O49686, E141Y/K59R/Y120A); assay: as above
T30 construct: expressed in transfected cells; host or cells: S. cerevisiae Y190 two-hybrid reporter strain
Source text: as §2

PYR1 K59R Y120A N167C = biological target: T31, PYR1 K59R Y120A N167C (Arabidopsis thaliana, UniProt O49686, K59R/N167C/Y120A); assay: as above
T31 construct: expressed in transfected cells; host or cells: S. cerevisiae Y190 two-hybrid reporter strain
Source text: as §2

PYR1 K59R E94A N167C = biological target: T32, PYR1 K59R E94A N167C (Arabidopsis thaliana, UniProt O49686, E94A/K59R/N167C); assay: as above
T32 construct: expressed in transfected cells; host or cells: S. cerevisiae Y190 two-hybrid reporter strain
Source text: as §2

Measured: Threshold

T1 sequence (Q9CAJ0 23-511): as above
T1 sequence (O49686 whole entry K59R/F159T): as the sequence (O49686 whole entry K59R/Y120F) above, with F120Y, F159T counted along it

N#Cc1c[nH]cc1-c1cccc2c1OC(F)(F)O2 [Fludioxonil, fludioxonil]
1 µM: PYR1 K59R E94A
10 µM: PYR1 K59R E94A Y120A | PYR1 K59R Y120A E141Y | PYR1 K59R Y120A N167C | PYR1 K59R E94A N167C
100 µM: all other assays above
